The values that follow come from patent US20230087388A1, “INHIBITORS OF HUMAN DEUBIQUITINASES FOR THE TREATMENT OF CORONAVIRAL INFECTIONS” (Immunologik GmbH, priority 2020, published 2023).

Entries after “also recorded” stand apart in the source; their conditions may differ.

Series [1] has as its system SARS-CoV-2. Type of series: cell-based.
Series [2] concerns the target T1, papain-like protease (PLpro) of SARS-CoV-2 (Severe acute respiratory syndrome coronavirus 2, UniProt P0DTD1).
T1 construct: They are the papain-like proteases (PLpro), encoded within nsp3; purchased R&D biosystems E-611-050
In kind it is biochemical.

Series [3] relates to SARS-CoV-2. Kind of series: qRT-PCR of viral RNA from SARS-CoV-2 infected Vero-B4 cells. In kind it is cell-based. As to conditions: 10 μM, 3 d treatment, 3 independent experiments; compared with 10 μM chloroquine or hydroxychloroquine. The procedure: Therefore, virus-containing samples were quantified by real-time PCR AgPath-ID One-Step RT-PCR Kit from Ambion (Cat: 4387424) allowing reverse transcription, cDNA synthesis and PCR amplification in a single step. Samples were analyzed by 7500 software v2.3 (applied Bioscience). PCR primers were used according to 44: RdRp_fwd: 5′-GTG-ARA-TGG-TCA-TGT-GTG-GCG-G-3′ and RdRp_rev 5′-CAR-ATG-TTA-AAS-ACA-CTA-TTA-GCA-TA-C-3′. Probe was 5′-CAG-GTG-GAA-/ZEN/CCT-CAT-CAG-GAG-ATG-C-3′ (Label: FAM/IBFQ Iowa Black FQ). As positive control a specific target for E and RdRp gen of SARS-CoV2 was used and made by Integrated DNA Technologies. Control: 5′-TAA-TAC-GAC-TCA-CTA-TAG-GGT-ATT-GAG-TGA-AAT-GGT-CAT-GTG-TGG-CGG-TTC-ACT-ATA-TGT-TAA-ACC-AGG-TGG-AAC-CTC-ATC-AGG-AGA-TGC-CAC-AAC-TGC-TTA-TGC-TAA-TAG-TGT-TTT-TAA-CAT-TTG-GAA-GAG- ACA-GGT-ACG-TTA-ATA-GTT-AAT-AGC-GTA-CTT-CTT-TTT-CTT-GCT-TTC-GTG-GTA-TTC-TTG-CTA-GTT-ACA-CTA-GCC-ATC-CTT-ACT-GCG-CTT-CGA-TTG-TGT-GCG-TAC-TGC-TGC-AAT-ATT-GTT-3′. The annealing temperature was 60° C. The experimental procedure containing the infection, treatment and isolation of virions was the same as described for the Western blot analysis. The evaluation of qRT-PCR analysis clearly confirmed the results of the Western blot experiments.
For orientation: Quantitative PCR measures a nucleic acid by following its amplification.

For a further series, the system named is Vero-B4 cells. The conditions noted are these: WST assay, 3 days.

With `CC(=O)c1cc([N+](=O)[O-])c(Sc2cccc(Cl)c2Cl)s1` [P5091, 1-[5-[(2,3-dichlorophenyl)thio]-4-nitro-2-thienyl]-ethanone], the “reduction in the release of SARS-CoV-2 proteins (densitometric analysis)” value with SARS-CoV-2 [1] (1.25 μM P5091, 3 d treatment, 3 independent experiments, untreated = 100%) is given as 90%. Also, the “release of SARS-CoV-2 proteins / replication of SARS-CoV-2” value with SARS-CoV-2 [1] (5 μM P5091, infected Vero-B4 cells, 3 d treatment) was “complete block; also recorded: nearly completely inhibit”. Moreover, the “release of viral proteins in Western Blot” value with SARS-CoV-2 [1] (different concentrations of P5091, 3 d treatment) is on record as “dose-dependent decrease”. In addition, the “inhibitory effect on SARS-CoV-2 PLpro activity” value in series [2] (20 nM recombinant PLpro, ISG15-AMC substrate, 30 min pretreatment, 120 min readout, PR-619 1.25-10 μM, P5091 1.5-6 μM) was “dose dependent reduction; also recorded: direct inhibitory action”. Besides, the “reduction of activity of PLpro from SARS-CoV-2 (AUC)” value in series [2] (6 μM P5091, n=3) was 80%.
Turning to `N#CSc1cc(SC#N)c(N)nc1N` [PR-619, 2,6-diaminopyridine-3,5-bis(thiocyanate)], the “inhibition of replication of SARS-CoV-2 in infected Vero-B4 cells” value in the series with SARS-CoV-2 [1] (10 μM PR-619) is reported as “broadly inhibit”. Besides, the “SARS-CoV-2 proteins in Western Blot, virus and cell fraction” value in the series on SARS-CoV-2 [1] (10 μM PR-619, infected Vero-B4 cells, 3 dpi) is recorded as “clear reduction”. Further, in the series with SARS-CoV-2 [1] (10 μM, 3 d treatment, 3 independent experiments, compared with 10 μM chloroquine or hydroxychloroquine), the “generation of SARS-CoV-2 proteins, densitometric evaluation (nucleoprotein virus fraction, spike S1 cell fraction)” value is on record as “significantly inhibited”. Besides, the “amount of viral RNA (qRT-PCR)” value in the series with SARS-CoV-2 [3] is “significantly reduced”. Besides, the “concentration at which a clear toxic effect started” value in the series on Vero-B4 cells is “over 20 μM”.
